# Assay results published in patent US7186743B2, “Substituted pyrazolyl compounds for the treatment of inflammation” (Pharmacia Corporation, priority 2001, dated 2007).
# Where a name gives a salt, the structure may show the parent alone.
# Molecular target: T1, IKK2 (Homo sapiens, UniProt O14920)
# T1 construct: made in house; host or cells: insect cells (baculovirus, pFastBac; SF9)
# T1 sequence (O14920 1-756): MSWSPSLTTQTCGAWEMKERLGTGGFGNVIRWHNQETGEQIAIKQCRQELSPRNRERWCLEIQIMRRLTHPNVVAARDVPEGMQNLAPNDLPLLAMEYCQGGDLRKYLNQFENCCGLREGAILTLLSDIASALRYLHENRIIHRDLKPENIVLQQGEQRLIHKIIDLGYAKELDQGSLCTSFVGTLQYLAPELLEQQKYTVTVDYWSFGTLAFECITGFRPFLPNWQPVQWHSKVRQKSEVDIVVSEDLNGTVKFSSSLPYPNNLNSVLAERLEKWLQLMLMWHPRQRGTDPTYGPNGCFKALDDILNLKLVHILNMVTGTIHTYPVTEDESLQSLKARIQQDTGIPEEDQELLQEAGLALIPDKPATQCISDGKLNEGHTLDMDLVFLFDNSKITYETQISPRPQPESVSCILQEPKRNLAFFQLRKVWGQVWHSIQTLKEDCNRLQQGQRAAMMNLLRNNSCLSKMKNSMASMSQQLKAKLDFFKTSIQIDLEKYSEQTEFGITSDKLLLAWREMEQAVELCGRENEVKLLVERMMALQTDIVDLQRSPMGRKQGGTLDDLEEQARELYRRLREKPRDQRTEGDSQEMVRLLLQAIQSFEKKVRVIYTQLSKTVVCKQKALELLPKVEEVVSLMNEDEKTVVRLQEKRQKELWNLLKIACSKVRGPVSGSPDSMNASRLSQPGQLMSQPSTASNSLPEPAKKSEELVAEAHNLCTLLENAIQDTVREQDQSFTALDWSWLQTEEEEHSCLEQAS
# Experiment: IKKβ Resin Enzyme Assay (IKK2 resin)
# Type: biochemical
# Conditions: Table 3; read-out: IKK Resin IC50
# Excerpt: cDNAs of human IKK1 and IKK2 were amplified by reverse transcriptase-polymerase chain reaction from human placental RNA (Clonetech). hIKK1 was subcloned into pFastBac HTa (Life Technologies) and expressed as N-terminal His6-tagged fusion protein. The hIKK2 cDNA was amplified using a reverse oligonucleotide primer which incorporated the peptide sequence for a FLAG-epitope tag at the C-terminus of the IKK2 coding region ([…]). The hIKK2:FLAG cDNA was subcloned into the baculovirus vector pFastBac. The rhIKK2 ([…]) mutant was constructed in the same vector used for wild type rhIKK2 using a QuikChange™ mutagenesis kit (Stratagene). Viral stocks of each construct were used to infect insect cells grown in 40 L suspension culture. […] Cell lysates were stored at −80° C. until purification of the recombinant proteins was undertaken as described below.
# A 10-liter culture of baculovirus-expressing IKK2 tagged with FLAG peptide was centrifuged and the cell pellet (MOI=0.1 and I=72 hrs) was re-suspended in buffer A. These cells were microfluidized, and centrifuged at 100,000×g for 45 min. Supernatant was passed over a G-25 column equilibrated with Buffer A. Protein peak was collected and incubated with anti-FLAG affinity resin on a rotator overnight in buffer B. The resin was washed in batch with 10–15 bed volumes of buffer C. Washed resin was poured into a column and rhIKK2 homodimer was eluted using 5 bed volumes of buffer B containing FLAG peptide. 5 mM DTT, 0.1% NP-40 and BSA (concentrated to 0.1% in final amount) was added to the eluted enzyme before concentrating in using an Amicon membrane with a molecular weight cut-off of 30 kDa. Enzyme was aliquoted and stored at −80° C.
# IKKβ kinase activity was measured using a biotinylated IκBα peptide ([…]32-Gly-Leu-Asp-Ser36-Met-Lys-Asp-Glu-Glu) (American Peptide Co.). […] ATP (Amersham) (about 1×10^5 cpm), 1 μM ATP (Sigma), 1 mM DTT (Sigma), 2 mM MgCl2 (Sigma), 2 mM MnCl2 (Sigma), 10 mM NaF (Sigma), 25 mM Hepes (Sigma) buffer, pH 7.6 and 20 μl enzyme solution and 10 ul inhibitor in a final volume of 50 μl. After incubation at 25° C. for 30 min, 150 μl resin (Dowex anion-exchange resin AG1X8 200–400 mesh) in 900 mM formate, pH 3.0 was added to each well to stop the reaction. Resin was allowed to settle for one hour and 50 ul of supernatant was removed to a Micolite-2 flat bottom plate (Dynex). 150 μl of scintillation fluid (Microscint 40) (Packard) was added to each well. Incorporation of [γ-^33P] ATP was measured using a Top-Count NXT (Packard).
row,SMILES,IC50 [nM]
1,"CS(=O)(=O)c1ccc(-n2nc(C(N)=O)c3c2-c2cc(NC(=O)c4ccc(C(F)(F)F)cc4[N+](=O)[O-])ccc2CC3)cc1 [Example 152, 1-[4-(methylsulfonyl)phenyl]-8-{[2-nitro-4-(trifluoromethyl)benzoyl]amino}-4,5-dihydro-1H-benzo[g]indazole-3-carboxamide]",≤ 1000
2,Cc1ccc([N+](=O)[O-])c(C(=O)Nc2ccc3c(c2)-c2c(c(C(N)=O)nn2-c2ccc(S(C)(=O)=O)cc2)CC3)c1 [Example 153],≤ 1000
3,"CS(=O)(=O)c1ccc(-n2nc(C(N)=O)c3c2-c2cc(NC(=O)c4ccc([N+](=O)[O-])cc4[N+](=O)[O-])ccc2CC3)cc1 [Example 155, 8-[(2,4-dinitrobenzoyl)animo]-1-[4-(methylsulfonyl)phenyl]-4,5-dihydro-1H-benzo[g]indazole-3-carboxamide]",≤ 1000
4,"COc1cccc(CC(=O)Nc2ccc3c(c2)-c2c(c(C(N)=O)nn2-c2ccc(S(C)(=O)=O)cc2)CC3)c1 [Example 157, 8-{[(3-methoxyphenyl)acetyl]amino}-1-[4-(methylsulfonyl)phenyl]-4,5-dihydro-1H-benzo[g]indazole-3-carboxamide]",≤ 1000

# Same assay, conditions: Table 4; read-out: IKK2 Resin IC50
row,SMILES,IC50 [nM]
1,"CS(=O)(=O)c1ccc(C(=O)Nc2ccc3c(c2)-c2c(c(C(N)=O)nn2-c2ccc4c(c2)OCO4)CC3)c(Cl)c1 [Example 163, 1-(1,3-benzodioxol-5-yl)-8-{[2-chloro-4-(methylsulfonyl)benzoyl]amino}-4,5-dihydro-1H-benzo[g]indazole-3-carboxamide]",≤ 1000
2,"NC(=O)c1nn(-c2ccc3c(c2)OCO3)c2c1CCc1ccc(NC(=O)c3ccc(F)cc3Cl)cc1-2 [Example 164, 1-(1,3-benzodioxol-5-yl)-8-[(2-chloro-4-fluorobenzoyl)amino]-4,5-dihydro-1H-benzo[g]indazole-3-carboxamide]",≤ 1000
3,"NC(=O)c1nn(-c2ccc3c(c2)OCO3)c2c1CCc1ccc(NC(=O)c3ccccc3Cl)cc1-2 [Example 165, 1-(1,3-benzodioxol-5-yl)-8-[(2-chlorobenzoyl)amino]-4,5-dihydro-1H-benzo[g]indazole-3-carboxamide]",≤ 1000
4,"NC(=O)c1nn(-c2ccc3c(c2)OCO3)c2c1CCc1ccc(NC(=O)c3cc(F)c(F)cc3Cl)cc1-2 [Example 166, 1-(1,3-benzodioxol-5-yl)-8-[(2-chloro-4,5-difluorobenzoyl)amino]-4,5-dihydro-1H-benzo[g]indazole-3-carboxamide]",≤ 1000
5,"Cc1ccc(C(=O)Nc2ccc3c(c2)-c2c(c(C(N)=O)nn2-c2ccc4c(c2)OCO4)CC3)c(Cl)n1 [Example 167, 1-(1,3-benzodioxol-5-yl)-8-{[(2-chloro-6-methylpyridin-3-yl)carbonyl]amino}-4,5-dihydro-1H-benzo[g]indazole-3-carboxamide]",≤ 1000
6,"NC(=O)c1nn(-c2ccc3c(c2)OCO3)c2c1CCc1ccc(NC(=O)c3cc4c(cc3Cl)OCO4)cc1-2 [Example 168, 1-(1,3-benzodioxol-5-yl)-8-{[(6-chloro-1,3-benzodioxol-5-yl)carbonyl]amino}-4,5-dihydro-1H-benzo[g]indazole-3-carboxamide]",≤ 1000
7,"NC(=O)c1nn(-c2ccc3c(c2)OCO3)c2c1CCc1ccc(NC(=O)c3c(N)cccc3Cl)cc1-2 [Example 169, 8-[(2-amino-6-chlorobenzoyl)amino]-1-(1,3-benzodioxol-5-yl)-4,5-dihydro-1H-benzo[g]indazole-3-carboxamide]",≤ 1000
8,"NC(=O)c1nn(-c2ccc3c(c2)OCO3)c2c1CCc1ccc(NC(=O)c3ccncc3Cl)cc1-2 [Example 170, 1-(1,3-benzodioxol-5-yl)-8-[(3-chloroisonicotinoyl)amino]-4,5-dihydro-1H-benzo[g]indazole-3-carboxamide]",≤ 1000
9,"NC(=O)c1nn(-c2ccc3c(c2)OCO3)c2c1CCc1ccc(NC(=O)c3cccc(N)c3Cl)cc1-2 [Example 171, 8-[(3-amino-2-chlorobenzoyl)amino]-1-(1,3-benzodioxol-5-yl)-4,5-dihydro-1H-benzo[g]indazole-3-carboxamidehydrochloride]",≤ 1000
10,"NC(=O)c1nn(-c2ccc3c(c2)OCO3)c2c1CCc1ccc(NC(=O)c3cc(N)ccc3Cl)cc1-2 [Example 172, 8-[(5-amino-2-chlorobenzoyl)amino]-1-(1,3-benzodioxol-5-yl)-4,5-dihydro-1H-benzo[g]indazole-3-carboxamide]",≤ 1000
11,"NC(=O)c1nn(-c2ccc3c(c2)OCO3)c2c1CCc1ccc(NC(=O)c3cc([N+](=O)[O-])ccc3Cl)cc1-2 [Example 173, 1-(1,3-benzodioxol-5-yl)-8-[(2-chloro-5-nitrobenzoyl)amino]-4,5-dihydro-1H-benzo[g]indazole-3-carboxamide]",≤ 1000
12,"COc1cc(Cl)c(C(=O)Nc2ccc3c(c2)-c2c(c(C(N)=O)nn2-c2ccc4c(c2)OCO4)CC3)cc1OC [Example 174, 1-(1,3-benzodioxol-5-yl)-8-[(2-chloro-4,5-dimethoxybenzoyl)amino]-4,5-dihydro-1H-benzo[g]indazole-3-carboxamide]",≤ 1000
13,"COc1ccc(C(=O)Nc2ccc3c(c2)-c2c(c(C(N)=O)nn2-c2ccc4c(c2)OCO4)CC3)c(Cl)c1OC [Example 175, 1-(1,3-benzodioxol-5-yl)-8-[(2-chloro-3,4-dimethoxybenzoyl)amino]-4,5-dihydro-1H-benzo[g]indazole-3-carboxamide]",≤ 1000
14,"NC(=O)c1nn(-c2ccc3c(c2)OCO3)c2c1CCc1ccc(NC(=O)c3ccccc3Br)cc1-2 [Example 177, 1-(1,3-benzodioxol-5-yl)-8-[(2-bromobenzoyl)amino]-4,5-dihydro-1H-benzo[g]indazole-3-carboxamide]",≤ 1000
15,"COc1ccc(Cl)c(C(=O)Nc2ccc3c(c2)-c2c(c(C(N)=O)nn2-c2ccc4c(c2)OCO4)CC3)c1 [Example 178, 1-(1,3-benzodioxol-5-yl)-8-[(2-chloro-5-methoxybenzoyl)amino]-4,5-dihydro-1H-benzo[g]indazole-3-carboxamide]",≤ 1000
16,"NC(=O)c1nn(-c2ccc3c(c2)OCO3)c2c1CCc1ccc(NC(=O)c3ccc(N)cc3Cl)cc1-2 [Example 180, 8-[(4-amino-2-chlorobenzoyl)amino]-1-(1,3-benzodioxol-5-yl)-4,5-dihydro-1H-benzo[g]indazole-3-carboxamide]",≤ 1000
17,"NC(=O)c1nn(-c2ccc3c(c2)OCO3)c2c1CCc1ccc(NC(=O)c3ccc(C(F)(F)F)nc3Cl)cc1-2 [Example 181, 1-(1,3-benzodioxol-5-yl)-8-({[2-chloro-6-(trifluoromethyl)pyridin-3-yl]carbonyl}amino)-4,5-dihydro-1H-benzo[g]indazole-3-carboxamide]",≤ 1000
18,"COc1ccc(C(=O)Nc2ccc3c(c2)-c2c(c(C(N)=O)nn2-c2ccc4c(c2)OCO4)CC3)c(Cl)c1 [Example 182, 1-(1,3-benzodioxol-5-yl)-8-[(2-chloro-4-methoxybenzoyl)amino]-4,5-dihydro-1H-benzo[g]indazole-3-carboxamide]",≤ 1000
19,"CN(C)c1ccc(Cl)c(C(=O)Nc2ccc3c(c2)-c2c(c(C(N)=O)nn2-c2ccc4c(c2)OCO4)CC3)c1 [Example 183, 1-(1,3-benzodioxol-5-yl)-8-{[2-chloro-5-(dimethylamino)benzoyl]amino}-4,5-dihydro-1H-benzo[g]indazole-3-carboxamide]",≤ 1000
